The assay deals with Anopheles, Aedes, Stephinsi and Culex mosquito vectors. Description: Laboratory cage repellency, landing counts on treated sugar-soaked cotton bowls. In kind it is in vivo. As to the method: Studies were carried out against each individual species in replicates of three in each of the replicate cage, one hundred 3 to 5-day old sugar—fed female mosquitoes were held. Mosquito that are pre-starved for 4 hr or more prior to testing were used for the experiment.
Five plastic bowls with sugar—soaked cotton (10% in water) were placed at four opposing corners and one in the middle of the cage. These bowls were treated with the specified concentration of the composition described in Example 3, one specified concentration of DEET (know synthetic repellent compound as positive control) and one with only sugar-soaked cotton (Negative control). The four treated bowls were placed in four opposing corners while the untreated negative control in the middle on the floor of the cage. Five-minute landing counts were made at 0, 1, 2, 3, 4, and 6 hours with the cups were removed between the exposure intervals. Mean percent repellency for each percent formulation and species was calculated based on the data of the three replicates at the given times of observation.

As for `CCN(CC)C(=O)c1cccc(C)c1` [DEET], the “mosquitoes repelled with reference to the control” value (after 4 hrs) is 79%. The mosquitoes repelled (in 4 hrs) is on record as 97%.

Values taken from patent publication US20170215432A1, “SYNERGIZED PLANT EXTRACT/ESSENTIAL OIL BLEND COMPRISING BASIL OIL” (VAMA INC., priority 2014, published 2017).
